25 molecules from US20120220581A1, “IMIDAZO[1,2-b]PYRIDAZINE DERIVATIVES AND THEIR USE AS PDE10 INHIBITORS” (Janssen-Cilag, S.A., priority 2009, published 2012) can be followed below.

Each structure is given as a SMILES string.

The target in experiment [1] is T1, Rat recombinant PDE10A (rPDE10A2) (Rattus norvegicus, UniProt Q9QYJ6).
T1 construct: inferred from the Ni metal chelate purification; made in house; host or cells: Sf9 insect cells (baculovirus)
T1 sequence (Q9QYJ6 1-794): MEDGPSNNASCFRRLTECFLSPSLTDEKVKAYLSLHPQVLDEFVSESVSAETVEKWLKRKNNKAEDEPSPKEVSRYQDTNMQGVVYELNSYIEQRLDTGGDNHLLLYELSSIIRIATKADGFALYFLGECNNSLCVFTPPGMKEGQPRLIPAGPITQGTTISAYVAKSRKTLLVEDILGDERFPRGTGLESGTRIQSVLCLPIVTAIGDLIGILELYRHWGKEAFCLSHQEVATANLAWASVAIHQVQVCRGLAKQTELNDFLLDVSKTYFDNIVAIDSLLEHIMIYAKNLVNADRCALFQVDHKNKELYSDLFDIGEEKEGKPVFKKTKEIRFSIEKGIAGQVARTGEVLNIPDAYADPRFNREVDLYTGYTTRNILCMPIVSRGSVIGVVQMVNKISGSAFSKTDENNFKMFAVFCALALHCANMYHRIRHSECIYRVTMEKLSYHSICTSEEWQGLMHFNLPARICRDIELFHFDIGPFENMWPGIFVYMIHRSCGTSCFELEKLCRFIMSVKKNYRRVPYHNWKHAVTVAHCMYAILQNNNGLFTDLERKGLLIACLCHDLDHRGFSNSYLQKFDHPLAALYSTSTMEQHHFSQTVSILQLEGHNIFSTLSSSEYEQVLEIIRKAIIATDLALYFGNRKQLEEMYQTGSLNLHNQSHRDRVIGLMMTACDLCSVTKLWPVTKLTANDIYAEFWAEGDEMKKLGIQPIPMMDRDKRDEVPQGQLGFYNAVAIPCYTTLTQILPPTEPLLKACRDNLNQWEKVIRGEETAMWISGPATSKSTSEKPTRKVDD
In words: In vitro assay PDE10A (SPA, 3H-cAMP). It is filed as biochemical. To be noted: pIC50 corresponds to the −log IC50 expressed in mol/L; read-out: PDE10A2 pIC50 (converted). On the procedure:
Rat recombinant PDE10A (rPDE10A2) was expressed in Sf9 cells using a recombinant rPDE10A baculovirus construct. Cells were harvested after 48 h of infection and the rPDE10A protein was purified by metal chelate chromatography on Ni-sepharose 6FF. Tested compounds were dissolved and diluted in 100% DMSO to a concentration 100 fold of the final concentration in the assay. Compound dilutions (0.4 μl) were added in 384 well plates to 20 μl of incubation buffer (50 mM Tris pH 7.8, 8.3 mM MgCl2, 1.7 mM EGTA). 10 μl of rPDE10A enzyme in incubation buffer was added and the reaction was started by addition of 10 μl substrate to a final concentration of 60 nM cAMP and 0.008 μCi ^3H-cAMP. The reaction was incubated for 60 minutes at room temperature. […] After sedimentation of the beads during 30 minutes the radioactivity was measured in a Perkin Elmer Topcount scintillation counter and results were expressed as cpm. For blanc values the enzyme was omitted from the reaction and replaced by incubation buffer. Control values were obtained by addition of a final concentration of 1% DMSO instead of compound. The same assay principle is applied for the measurement of the affinity of the compound for other members of the PDE family with appropriate modifications in incubation buffer, substrate concentration, incubation time and stop solution.

For experiment [2], the system named is apomorphine-induced stereotypy in rats. In words: Apomorphine-induced stereotypy in rats (APO). The class given is in vivo. To be noted: Rattus norvegicus, n.d.: found not active at threshold dose 2.5 mg/kg or 10 mg/kg (a). On the procedure:
Apomorphine (1.0 mg/kg, i.v.)-induced stereotypy (compulsive sniffing, licking, chewing) was scored every 5 min over the first hour after injection of apomorphine, following a 1 hour interval pre-treatment with the test compound. The score system was: (3) pronounced, (2) moderate, (1) slight, and (0) absent.

For `Cc1nc2c(-c3ccncc3)cc(C3CC3)nn2c1-c1ccc(C2CCOCC2)nc1` [compound 81, 6-cyclopropyl-2-methyl-8-(4-pyridinyl)-3-[6-(tetrahydro-2H-pyran-4-yl)-3-pyridinyl]-imidazo[1,2-b]pyridazine], in experiment [1], the IC50 was 195 nM. Further, the ED50 in experiment [2] (not further tested) is greater than 2.5 mg/kg.

Take `c1cc(N2CCOCC2)c2ncc(-c3ccc(C4CCOCC4)nc3)n2n1` [compound 82, 8-(4-morpholinyl)-3-[6-(tetrahydro-2H-pyran-4-yl)-3-pyridinyl]-imidazo[1,2-b]pyridazine]: in experiment [1], the IC50 is 145 nM. The molecule further returned an ED50 in experiment [2] (not further tested) greater than 2.5 mg/kg.

`CCc1ccc(-c2c(C)nc3c(-c4ccncc4)ccnn23)cn1` [compound 83, 3-(6-ethyl-3-pyridinyl)-2-methyl-8-(4-pyridinyl)-imidazo[1,2-b]pyridazine]: in experiment [1], the IC50 was 51.3 nM. The molecule also showed an ED50 in experiment [2] (not further tested) greater than 2.5 mg/kg.

Consider `CCc1ccc(-c2c(C)nc3c(-c4ccncc4)cc(C4CC4)nn23)cn1` [compound 86, 6-cyclopropyl-3-(6-ethyl-3-pyridinyl)-2-methyl-8-(4-pyridinyl)-imidazo[1,2-b]pyridazine], for which, in experiment [1], the IC50 is 263 nM. The molecule further displayed an ED50 in experiment [2] (not further tested) greater than 2.5 mg/kg.

In the case of `CCc1ccc(-c2c(C3CC3)nc3c(-c4ccncc4)ccnn23)cn1` [compound 87, 2-cyclopropyl-3-(6-ethyl-3-pyridinyl)-8-(4-pyridinyl)-imidazo[1,2-b]pyridazine], the IC50 in experiment [1] was 21.9 nM. Further, in experiment [2] (not further tested), the ED50 was greater than 2.5 mg/kg.

On to `CCc1ccc(-c2c(C)nc3c(-c4ccncc4)cc(C)nn23)cn1` [compound 88, 3-(6-ethyl-3-pyridinyl)-2,6-dimethyl-8-(4-pyridinyl)-imidazo[1,2-b]pyridazine], for which, in experiment [1], the IC50 was 115 nM. In experiment [2] (not further tested), the ED50 was greater than 2.5 mg/kg.

For the molecule `Cc1nc2c(N3CCOCC3)ccnn2c1-c1ccc(N2CCCC2)nc1` [compound 89, 2-methyl-8-(4-morpholinyl)-3-[6-(1-pyrrolidinyl)-3-pyridinyl]-imidazo[1,2-b]pyridazine], the IC50 in experiment [1] was 132 nM. The same molecule displayed an ED50 in experiment [2] (po, * not soluble, tested orally as a suspension) greater than 2.5 mg/kg.

With `Cc1nc2c(N3CCOCC3)ccnn2c1-c1ccc(NC(C)C)nc1` [compound 90, N-(1-methylethyl)-5-[2-methyl-8-(4-morpholinyl)imidazo[1,2-b]pyridazin-3-yl]-2-pyridinamine], the IC50 in experiment [1] is 67.6 nM. In experiment [2] (not further tested), the 50% effective dose (ED50) was greater than 2.5 mg/kg.

Regarding `Cc1nc2c(N3CCOCC3)ccnn2c1-c1ccnc(N2CCCC2)c1` [compound 92, 2-methyl-8-(4-morpholinyl)-3-[2-(1-pyrrolidinyl)-4-pyridinyl]-imidazo[1,2-b]pyridazine], the IC50 in experiment [1] was 57.5 nM. The ED50 in experiment [2] (not further tested) is greater than 2.5 mg/kg.

`Cc1nc2c(N3CCOCC3)ccnn2c1-c1ccnc(NC(C)C)c1` [compound 93, N-(1-methylethyl)-4-[2-methyl-8-(4-morpholinyl)imidazo[1,2-b]pyridazin-3-yl]-2-pyridinamine]: the IC50 in experiment [1] is 25.1 nM. For the same molecule, the median effective dose (ED50) in experiment [2] (not further tested) was greater than 2.5 mg/kg.

For `Cc1cc(-c2ccncc2)c2nc(C)c(-c3ccc(N4CCNCC4)nc3)n2n1` [compound 96, 2,6-dimethyl-3-[6-(1-piperazinyl)-3-pyridinyl]-8-(4-pyridinyl)-imidazo[1,2-b]pyridazine], the IC50 in experiment [1] is 186 nM. For the same molecule, in experiment [2] (not further tested), the ED50 is greater than 2.5 mg/kg.

Take `Cc1nc2c(-c3ccncc3)ccnn2c1-c1ccc(N2CCNCC2)nc1` [compound 97, 2-methyl-3-[6-(1-piperazinyl)-3-pyridinyl]-8-(4-pyridinyl)-imidazo[1,2-b]pyridazine]: in experiment [1], the IC50 is 141 nM. This molecule gave an ED50 in experiment [2] (not further tested) greater than 2.5 mg/kg.

With `c1cc(N2CCOCC2)c2nc(C3CC3)c(-c3ccc(N4CCNCC4)nc3)n2n1` [compound 98, 2-cyclopropyl-8-(4-morpholinyl)-3-[6-(1-piperazinyl)-3-pyridinyl]-imidazo[1,2-b]pyridazine], in experiment [1], the IC50 was 110 nM. The same molecule came in with an ED50 in experiment [2] (not further tested) greater than 2.5 mg/kg.

In the case of `Cc1nc2c(-c3ccncc3)cc(C3CC3)nn2c1-c1ccc(N2CCNCC2)nc1` [compound 99, 6-cyclopropyl-2-methyl-3-[6-(1-piperazinyl)-3-pyridinyl]-8-(4-pyridinyl)-imidazo[1,2-b]pyridazine], the IC50 in experiment [1] is 302 nM. In experiment [2] (not further tested), this molecule had an ED50 greater than 2.5 mg/kg.

For `Cc1cc(-c2ccncc2)c2nc(C3CC3)c(-c3ccc(N4CCNCC4)nc3)n2n1` [compound 101, 2-cyclopropyl-6-methyl-3-[6-(1-piperazinyl)-3-pyridinyl]-8-(4-pyridinyl)-imidazo[1,2-b]pyridazine], the IC50 in experiment [1] was 178 nM. Besides, in experiment [2] (not further tested), the ED50 is greater than 2.5 mg/kg.

For the molecule `c1cc(-c2ccnn3c(-c4ccc(N5CCNCC5)nc4)c(C4CC4)nc23)ccn1` [compound 102, 2-cyclopropyl-3-[6-(1-piperazinyl)-3-pyridinyl]-8-(4-pyridinyl)-imidazo[1,2-b]pyridazine], the IC50 in experiment [1] is 44.7 nM. In experiment [2] (not further tested), this molecule returned a 50% effective dose (ED50) greater than 2.5 mg/kg.

`Cc1nc2c(N3CCOCC3)ccnn2c1-c1ccnc(N2CCNCC2)c1` [compound 103, 2-methyl-8-(4-morpholinyl)-3-[2-(1-piperazinyl)-4-pyridinyl]-imidazo[1,2-b]pyridazine]: in experiment [1], the IC50 was 257 nM. The ED50 in experiment [2] (not further tested) is greater than 2.5 mg/kg.

As for `Cc1nc2c(N3CCOCC3)ccnn2c1-c1ccc(CC(C)C)nc1` [compound 104, 2-methyl-3-[6-(2-methylpropyl)-3-pyridinyl]-8-(4-morpholinyl)-imidazo[1,2-b]pyridazine], the IC50 in experiment [1] was 53.7 nM. The ED50 in experiment [2] (not further tested) was greater than 2.5 mg/kg.

Take `Cc1nc2c(N3CCOCC3)ccnn2c1-c1ccnc(CC(C)C)c1` [compound 105, 2-methyl-3-[2-(2-methylpropyl)-4-pyridinyl]-8-(4-morpholinyl)-imidazo[1,2-b]pyridazine]: the IC50 in experiment [1] is 25.1 nM. In experiment [2] (not further tested), the ED50 was greater than 2.5 mg/kg.

As for `CCc1ccc(-c2c(C3CC3)nc3c(N4CCOCC4)ccnn23)cn1` [compound 106, 2-cyclopropyl-3-(6-ethyl-3-pyridinyl)-8-(4-morpholinyl)-imidazo[1,2-b]pyridazine], in experiment [1], the IC50 was 66.1 nM. Also, the ED50 in experiment [2] (not further tested) is greater than 2.5 mg/kg.

For `CCc1ccc(-c2c(C)nc3c(N4CCOCC4)cc(C4CC4)nn23)cn1` [compound 107, 6-cyclopropyl-3-(6-ethyl-3-pyridinyl)-2-methyl-8-(4-morpholinyl)-imidazo[1,2-b]pyridazine], the IC50 in experiment [1] is 269 nM. The molecule also came in with an ED50 in experiment [2] (not further tested) greater than 2.5 mg/kg.

With `CCc1ccc(-c2c(C)nc3c(N4CCOCC4)cc(C)nn23)cn1` [compound 108, 3-(6-ethyl-3-pyridinyl)-2,6-dimethyl-8-(4-morpholinyl)-imidazo[1,2-b]pyridazine], the IC50 in experiment [1] is 155 nM. Also, the ED50 in experiment [2] (not further tested) was greater than 2.5 mg/kg.

With `CCc1ccc(-c2cnc3c(N4CCOCC4)ccnn23)cn1` [compound 109, 3-(6-ethyl-3-pyridinyl)-8-(4-morpholinyl)-imidazo[1,2-b]pyridazine], the IC50 in experiment [1] was 251 nM. Moreover, the ED50 in experiment [2] (not further tested) is greater than 2.5 mg/kg.

On to `Cc1nc2c(-c3ccncc3)ccnn2c1-c1ccc(C2CC2)nc1` [compound 111, 3-(6-cyclopropyl-3-pyridinyl)-2-methyl-8-(4-pyridinyl)-imidazo[1,2-b]pyridazine], for which the IC50 in experiment [1] was 97.7 nM. In experiment [2] (not further tested), this molecule yielded an ED50 greater than 2.5 mg/kg.

Consider `CO[C@H]1CCN(c2ccc(-c3c(C)nc4c(N5CCOCC5)ccnn34)cn2)C1` [compound 113, 3-[6-[(3S)-3-methoxy-1-pyrrolidinyl]-3-pyridinyl]-2-methyl-8-(4-morpholinyl)-imidazo[1,2-b]pyridazine], for which the IC50 in experiment [1] was 158 nM. Further, the ED50 in experiment [2] (not further tested) is greater than 2.5 mg/kg.
